{"source": "paper PMC9967013", "about": "“A Theranostic Small-Molecule Prodrug Conjugate for Neuroendocrine Prostate Cancer” (Pharmaceutics, 2023)", "key": {"PC3 cells": {"test_system": "PC3 cells", "test": "Cell viability assay (MTT)", "type": "cell-based, human", "settings": "OD 570 nm, read-out: EC50 (cytotoxicity)", "procedure": "PC3 cells (3000–5000 cells/well) were seeded onto a 96-well plate. After one day, freshly prepared RPMI media containing different concentrations (0, 1, 5, 10 µM; n = 5) of FTY720 (Selleckchem, Houston, TX, USA) or compound 10 (0, 1, 3, 15, 30 µM; n = 5) were added to the cells, and the mixtures were incubated for 48 or 72 h. The relative number of viable cells was determined by an assay using 3-(4,5-dimethylthiazol-2-yl) -2,5-diphenyltetrazolium bromide (MTT) (Sigma-Aldrich, Saint-Louis, MO, USA), according to the manufacturer’s instructions, on a microplate reader at OD 570 nm. The experiment was repeated in triplicate, and data were represented as the mean ± standard deviation (s.d)."}, "[1]": {"test_system": "SSTR2^low PC3_sgPTP1B xenografts", "test": "Small animal PET/CT imaging, tumor uptake in SSTR2^low xenograft", "settings": "same mice, i.v. 3–4.4 MBq, 60-min dynamic PET"}, "[2]": {"test_system": "SSTR2^high PC3_VC xenografts", "test": "Small animal PET/CT imaging, tumor uptake in SSTR2^high xenograft", "settings": "same mice, i.v. 3–4.4 MBq, 60-min dynamic PET"}, "human cathepsin B": {"target": "T1, human cathepsin B (Homo sapiens, UniProt P07858)", "T1 construct": "purchased Sino Biological Inc", "test": "In vitro cathepsin-B-mediated release assay", "type": "in vitro ADME", "settings": "37 °C, 1 h", "procedure": "A comparative cathepsin-B-mediated release assay was performed with compound 13 in the presence vs. absence of human cathepsin B (Sino Biological Inc., Chesterbrook, PA, USA). Briefly, compound 13 (150 µg) was dissolved in 60 µL of 100 mM citrate buffer (pH 5.5), followed by adding 300 µg of cysteine. Then, 20 µg of human cathepsin B in 40 µL of 100 mM citrate buffer was added to the mixture and incubated at 37 °C for 1 h. At the end of the incubation, the solution (20 µL) was sampled for HPLC and LC–MS analysis. Controls of this assay included compound 13 without being exposed to cathepsin B, as well as cathepsin B itself processed under the same conditions."}, "[3]": {"test_system": "SSTR2^high AR42J and SSTR2^low PC3-Flu cells", "test": "SSTR2-selective cell uptake assay", "type": "cell-based", "settings": "1 h incubation at r.t., binding buffer (20 mM tris, 150 mM NaCl, pH 7.4), ~7.1 × 10^5 CPM, gamma counting, uptake in SSTR2^low cells set at 1, n = 3"}, "SSTR2^high AR42J cells": {"test_system": "SSTR2^high AR42J cells", "test": "Internalization assay", "type": "cell-based", "settings": "after 60 min, ~5 × 10^5 CPM, acid strip (glycine pH 3.0), gamma counting, n = 3"}}, "note": "Where two headings read alike, the source gives them in different places."}
{"molecule": "CCCCCCCCc1ccc(CCC(CO)(CO)NC(=O)OCc2ccc(NC(=O)[C@H](CCCNC(N)=O)NC(=O)[C@@H](NC(=O)CCOCCOCCOCCN=[N+]=[N-])C(C)C)cc2)cc1", "note": "[Compound 10, Val-Cit-pABOC-FTY720]", "values": [{"measurement": "EC50", "setting": "PC3 cells; 48 h incubation", "value": "> 15", "unit": "µM"}, {"measurement": "EC50", "setting": "PC3 cells; 72 h incubation", "value": "> 15", "unit": "µM"}]}
{"molecule": "CCCCCCCCc1ccc(CCC(N)(CO)CO)cc1", "note": "[FTY720, fingolimod, reference compound]", "values": [{"measurement": "EC50", "setting": "PC3 cells; Homo sapiens, PC-3, 48 h incubation", "value": "~5", "unit": "µM"}, {"measurement": "EC50", "setting": "PC3 cells; Homo sapiens, PC-3, 72 h incubation", "value": "~5", "unit": "µM"}]}
{"molecule": "O=C([O-])CN(CCN(CC(=O)[O-])Cc1cc(CCC(=O)NCCCCCC(=O)NCCCC[C@H](NC(=O)N[C@@H](CCC(=O)O)C(=O)O)C(=O)O)ccc1[O-])Cc1cc(CCC(=O)O)ccc1[O-].[68Ga+3].[OH3+]", "note": "[[^68Ga]Ga-PSMA-11]", "values": [{"measurement": "tumor uptake in SSTR2^low PC3_sgPTP1B tumors (in words)", "setting": "[1]", "value": "low uptake"}, {"measurement": "tumor uptake in SSTR2^high PC3-VC tumors (in words)", "setting": "[2]", "value": "low uptake"}]}
{"molecule": "DOTA-PEG3-TZ(PEG4-Octr)-PEG2-Trz-PEG3-Val-Cit-pABOC-FTY720 (disulfide) [Compound 13]", "values": [{"measurement": "cathepsin-B-mediated release of FTY720", "setting": "human cathepsin B; 150 µg compound, 20 µg human cathepsin B, 100 mM citrate buffer pH 5.5, cysteine, HPLC and LC-MS read-out", "value": "cathepsin-B-mediated release of FTY720 was further confirmed"}, {"measurement": "release of FTY720 in the absence of cathepsin B (control)", "setting": "human cathepsin B; same conditions without cathepsin B: 100 mM citrate buffer pH 5.5, cysteine, LC-MS read-out (FTY720 peak 366.0488 [M + 2H2O + Na]+)", "value": "the peak of 366.0488 was absent"}]}
{"molecule": "[^64Cu]Cu-DOTA-PEG3-TZ(PEG4-Octr)-PEG2-Trz-PEG3-Val-Cit-pABOC-FTY720 (disulfide)", "values": [{"measurement": "normalized uptake, accumulation in SSTR2^high AR42J cells relative to SSTR2^low PC3-Flu cells", "setting": "[3]", "value": "six-fold higher"}, {"measurement": "internalized percentage (Internalized/Total Bound%)", "setting": "SSTR2^high AR42J cells", "value": "approximately 40%"}]}
